The record followed here is patent publication US12070472B2, “Treatment of drug resistant proliferative diseases with telomerase mediated telomere altering compounds” (The Board of Regents of the University of Texas System, priority 2016, dated 2024).

One series concerns H1819. Nature of the series: Sensitization by 5-azacytidine pretreatment, H1819. The series is classed as cell-based, human. The settings on record: 500 nM 5-azacytidine for one week. On the procedure:
(§1) All three resistant cell lines were pre-treated with 500 nM of the demethylating agent 5-azacytidine for one week. Following the 5-azacytidine pretreatment, each resistant cell line was treated with 9 different concentrations (0.01 to 1000 micromolar) of 6-thio-dG for one week. Cells were then evaluation for growth/death.

The test system of a further series is H1693. Nature of the series: Sensitization by 5-azacytidine pretreatment, H1693. The series is classed as cell-based, human. The settings on record: 500 nM 5-azacytidine for one week. On the procedure: as §1
For the next series, the system named is H1993 cells. Nature of the series: Sensitization by 5-azacytidine pretreatment, H1993. It counts as cell-based, human. The conditions noted are these: 500 nM 5-azacytidine for one week. On the procedure:
as §1

The test system of another series is BJ. Nature of the series: GI 50 determination, BJ. The series is classed as cell-based. The settings on record: Homo sapiens; BJ normal cell line. On the procedure: (§2) Cells of each type listed in Table 2 were seeded in chamber slides.
The test system of another series is H2882. Nature of the series: GI 50 determination, H2882. The series is classed as cell-based. The conditions noted are these: Homo sapiens, NCI-H2882. On the procedure:
as §2

For the next series, the target named is T1, telomerase (Homo sapiens, UniProt O14746).
T1 construct: endogenous in cells; host or cells: HCT116 human colon cancer cells (lysate)
T1 sequence (O14746 whole entry): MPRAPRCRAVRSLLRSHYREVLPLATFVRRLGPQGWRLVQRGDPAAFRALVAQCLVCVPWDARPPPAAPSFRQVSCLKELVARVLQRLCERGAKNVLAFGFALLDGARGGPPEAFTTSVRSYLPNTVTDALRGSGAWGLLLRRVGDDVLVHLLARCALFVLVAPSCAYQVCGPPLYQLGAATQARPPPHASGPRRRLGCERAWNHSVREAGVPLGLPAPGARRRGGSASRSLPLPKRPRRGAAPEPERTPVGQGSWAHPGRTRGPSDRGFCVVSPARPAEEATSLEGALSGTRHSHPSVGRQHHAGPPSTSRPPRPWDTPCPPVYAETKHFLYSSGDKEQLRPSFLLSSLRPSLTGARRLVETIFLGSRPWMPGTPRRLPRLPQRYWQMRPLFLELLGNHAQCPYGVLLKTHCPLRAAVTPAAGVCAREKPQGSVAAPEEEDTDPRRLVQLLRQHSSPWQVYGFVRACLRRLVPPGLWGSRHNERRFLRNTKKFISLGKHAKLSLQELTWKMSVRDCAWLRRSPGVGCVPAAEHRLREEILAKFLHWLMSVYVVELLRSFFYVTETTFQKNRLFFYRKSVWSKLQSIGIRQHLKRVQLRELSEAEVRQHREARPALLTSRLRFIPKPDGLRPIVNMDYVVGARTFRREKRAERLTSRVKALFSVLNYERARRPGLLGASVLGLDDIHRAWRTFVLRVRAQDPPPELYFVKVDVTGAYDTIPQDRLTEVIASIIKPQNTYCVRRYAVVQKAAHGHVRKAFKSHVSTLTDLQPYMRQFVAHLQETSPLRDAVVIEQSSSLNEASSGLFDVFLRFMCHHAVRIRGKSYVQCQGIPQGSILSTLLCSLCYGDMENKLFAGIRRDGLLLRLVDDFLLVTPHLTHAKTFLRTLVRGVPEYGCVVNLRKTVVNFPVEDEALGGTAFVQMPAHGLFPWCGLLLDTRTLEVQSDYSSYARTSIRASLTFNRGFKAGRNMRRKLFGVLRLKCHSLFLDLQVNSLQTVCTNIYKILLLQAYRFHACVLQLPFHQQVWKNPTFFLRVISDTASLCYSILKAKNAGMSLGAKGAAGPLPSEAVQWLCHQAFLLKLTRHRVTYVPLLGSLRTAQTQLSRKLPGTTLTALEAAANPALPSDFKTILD
T1 sequence (O60832 whole entry partner): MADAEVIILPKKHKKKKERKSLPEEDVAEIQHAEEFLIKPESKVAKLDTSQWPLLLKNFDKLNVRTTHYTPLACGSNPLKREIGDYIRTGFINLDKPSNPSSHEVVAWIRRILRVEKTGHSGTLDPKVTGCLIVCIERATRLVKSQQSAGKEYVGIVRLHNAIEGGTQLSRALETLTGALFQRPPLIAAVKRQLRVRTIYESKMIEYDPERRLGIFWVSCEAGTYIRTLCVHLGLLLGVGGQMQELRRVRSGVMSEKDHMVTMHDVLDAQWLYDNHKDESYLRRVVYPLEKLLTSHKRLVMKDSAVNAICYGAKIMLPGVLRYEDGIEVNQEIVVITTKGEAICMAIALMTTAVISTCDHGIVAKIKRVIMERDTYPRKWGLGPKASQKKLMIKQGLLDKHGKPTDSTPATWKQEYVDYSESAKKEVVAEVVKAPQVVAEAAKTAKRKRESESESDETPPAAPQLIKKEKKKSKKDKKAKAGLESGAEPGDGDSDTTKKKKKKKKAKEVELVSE
T1 sequence (Q9NY12 whole entry partner): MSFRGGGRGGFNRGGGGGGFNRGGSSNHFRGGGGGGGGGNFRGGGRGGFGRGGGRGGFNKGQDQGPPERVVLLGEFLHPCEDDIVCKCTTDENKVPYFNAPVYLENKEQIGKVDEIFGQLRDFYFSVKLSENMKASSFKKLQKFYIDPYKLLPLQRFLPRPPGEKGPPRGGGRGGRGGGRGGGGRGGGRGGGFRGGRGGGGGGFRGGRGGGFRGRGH
T1 sequence (Q9NX24 whole entry partner): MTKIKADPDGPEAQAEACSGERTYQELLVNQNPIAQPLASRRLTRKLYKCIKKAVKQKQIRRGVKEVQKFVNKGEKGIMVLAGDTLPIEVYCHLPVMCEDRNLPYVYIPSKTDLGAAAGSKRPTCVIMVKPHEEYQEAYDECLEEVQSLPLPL
T1 sequence (Q9NPE3 whole entry partner): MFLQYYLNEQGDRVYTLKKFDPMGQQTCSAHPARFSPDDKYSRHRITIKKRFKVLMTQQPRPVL
T1 sequence (Q9BUR4 whole entry partner): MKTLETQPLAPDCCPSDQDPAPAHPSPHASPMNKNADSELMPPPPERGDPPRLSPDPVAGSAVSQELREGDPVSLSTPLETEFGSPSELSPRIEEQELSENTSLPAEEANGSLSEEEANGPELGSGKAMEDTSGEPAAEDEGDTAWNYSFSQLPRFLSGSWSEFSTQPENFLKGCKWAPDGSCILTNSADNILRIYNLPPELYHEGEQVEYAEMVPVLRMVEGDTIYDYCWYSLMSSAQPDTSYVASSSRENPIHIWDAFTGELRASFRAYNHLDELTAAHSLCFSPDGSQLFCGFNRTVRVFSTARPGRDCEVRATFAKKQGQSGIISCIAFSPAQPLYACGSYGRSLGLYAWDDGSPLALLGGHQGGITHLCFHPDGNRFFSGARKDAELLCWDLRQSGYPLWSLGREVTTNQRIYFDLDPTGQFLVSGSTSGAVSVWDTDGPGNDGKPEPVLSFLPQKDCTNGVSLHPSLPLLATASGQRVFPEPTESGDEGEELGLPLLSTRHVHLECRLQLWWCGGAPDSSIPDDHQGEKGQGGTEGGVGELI
Nature of the series: Telomerase activity by TRAP assay in treated HCT116 cells. It counts as cell-based. The conditions noted are these: HCT116 cells treated with 1 and 10 μM every 3 days for 12 weeks. On the procedure:
Telomerase activity was measured by the TRAP assay (Telomeric Repeat Amplification Protocol as described in Shay J. W. and Bacchetti S., “A survey of telomerase activity in human cancer,” European Journal of Cancer 1997; 33:787-91.). Briefly, HCT116 cells were treated with 1 or 10 μM 6-thio-dG for 1-12 weeks. 1×10^5 cells were collected and lysed with ice-cold NP-40 lysis buffer (10 mM Tris-HCl pH 8.0, 1.0 mM MgCl2, 1 mM EDTA, 1% NP-40, 0.25 mM sodium deoxycholate, 10% glycerol, 150 mM NaCl, 5 mM β-mercaptoethanol) for 30 min. One microliter cellular lysate for 2500 cells was used for each reaction. Hela cells were used as a positive control and lysis buffer was used as a negative control. Samples were prepared and then the telomerase extension products were amplified using PCR (95° C. for 5 min to inactivate telomerase, then 95° C. for 30 sec, 52° C. for 30 sec, 72° C. for 30 sec; 24 cycles). Samples were run on a 10% non-denaturating acrylamide gel and visualized using a Typhoon PhosphorImager scanner system (Molecular Dynamics, GE Healthcare, Piscataway, NJ) that is capable of reading Cy5 fluorescence.

The subject of a further series is BJ cells. Kind of series: Telomere dysfunction induced foci (TIF) assay in normal BJ cells. The settings on record: 10 μM, after 48 hours. The series is classed as cell-based, human. On the procedure:
(§3) TIFs were quantified using Imaris software.
(§4) Normal BJ cells and […] BJ-hTERT cells were seeded in chamber slides. Following cell attachment, 6-thio-dG (10 μM) and 6-thio-G (10 μM) were added to fresh medium of each cell type. […] A control was used for each cell type as well, where DMSO was added to fresh medium of each cell type. […] These include almost all human cancer cells and certain human diseases involving acute and chronic inflammation.

A further series relates to HCC2429. Nature of the series: GI 50 determination, HCC2429. The settings on record: Homo sapiens. The series is classed as cell-based. On the procedure: as §2
For the next series, the system named is HCT116 cells. The conditions noted are these: 1 μM or 10 μM every 3 days, after 10 weeks. On the procedure: (§5) For long-term cellular experiments, HCT116 (1,000 cells/cm^2) and BJ (10,000 cells/cm^2) cells were fed with 6-thio-dG (1, 3, 10 μM) containing medium every three days. The cells were counted and replated every week for 10-16 weeks. Additionally, HCT116 cells (1,000 cells/cm^2) were fed with 6-thio-G (1, 3, 10 μM) every three days and each week cells were counted, collected for TRF (Telomere Restriction Fragment) analysis and replated. HCT116 cells, following treatment with 10 μM 6-thio-dG for 12 weeks, were then treated with a combination of 10 μM 6-thio-dG and 3 μM GRN163L for 2-4 weeks.

The subject of a further series is BJ fibroblast cells. Nature of the series: Telomere length assay (TRF), BJ fibroblasts long-term culture. The series is classed as cell-based, human. The conditions noted are these: 10 weeks, compared to untreated control. On the procedure:
as §5

Another series concerns H2009. Nature of the series: GI 50 determination, H2009. The series is classed as cell-based. The conditions noted are these: Homo sapiens, NCI-H2009. On the procedure: as §2
The next series has as its system H2087. Nature of the series: GI 50 determination, H2087. The conditions noted are these: Homo sapiens, NCI-H2087. The series is classed as cell-based. On the procedure:
as §2

Another series has as its system A549. Kind of series: GI 50 determination, A549. The conditions noted are these: Homo sapiens. The series is classed as cell-based. On the procedure:
as §2

How the values of series [1] were obtained:
Six WT mice were treated with 1.67 mg of 6-thio-dG/kg of body weight daily. Six WT mice were treated with 1.67 mg of 6-thio-G/kg of body weight daily. Six WT mice were treated with 5 mg of 6-thio-dG/kg of body weight daily. Six WT mice were treated with 5 mg of 6-thio-G/kg of body weight daily. The mice were given the appropriate dosage and weighed daily for 25 days.

The next series relates to HCT116. Nature of the series: GI 50 determination, HCT116. It counts as cell-based. The conditions noted are these: Homo sapiens, HCT-116. On the procedure: as §2
The next series concerns HCC4017. Nature of the series: GI 50 determination, HCC4017. The series is classed as cell-based. The settings on record: Homo sapiens. On the procedure: as §2
Series [2] deals with A549 human lung cancer cells. Nature of the series: Tumor growth in xenograft animal model with A549 cells. It counts as in vivo, mice. The conditions noted are these: 2.5 mg/kg every day. On the procedure: Doses of 2.5 mg/kg of 6-thio-dG and 2.5 mg/kg of 6-thio-G were injected every day into mice after tumor implantation and providing time for tumor initiation. DMSO injections were used for the control. The volume of the tumor was measured.

A further series concerns HCC15. Nature of the series: GI 50 determination, HCC15. It counts as cell-based. The settings on record: Homo sapiens. On the procedure:
as §2

The test system of another series is BJ-hTERT cells. Kind of series: Telomere dysfunction induced foci (TIF) assay in BJ-hTERT cells. It counts as cell-based, human. The settings on record: 10 μM, after 48 hours. On the procedure: as §3, §4
In the next series the test system is HCC515. Nature of the series: GI 50 determination, HCC515. It counts as cell-based. The conditions noted are these: Homo sapiens. On the procedure:
as §2

A further series has as its system HCC827. Kind of series: GI 50 determination, HCC827. It counts as cell-based. The settings on record: Homo sapiens. On the procedure: as §2

With `Nc1ncn([C@@H]2O[C@H](CO)[C@@H](O)[C@H]2O)c(=O)n1` [5-azacytidine], the “effect of pretreatment on sensitivity to 6-thio-dG” value in the series on H1819 is reported as “no effect on the sensitivity”; with H1693, “no effect on the sensitivity”; in the series with H1993 cells, “did increase sensitivity of the H1993 cells substantially”.
The term GI50 denotes the concentration at which growth is held to half of that of the control. A lower GI50 goes with greater sensitivity of the cells. On to `Nc1nc2nc[nH]c2c(=S)[nH]1` [6-thio-G, 6-thioguanine, reference compound], for which the GI50 in the series with BJ was above 100 µM; in the series with H2882 it was 0.6 µM; in the series with HCC2429, 0.7 µM; in the series on H2009, 3.3 µM; in the series with H2087, 0.9 µM; in the series on A549 it was 2.3 µM. Moreover, the GI50 is 1.2 µM with HCT116; 2 µM in the series with HCC4017; 1.1 µM in the series with HCC15; 4.9 µM in the series on HCC515; 1.7 µM in the series with HCC827. In addition, the “inhibition of telomerase activity (TRAP)” value at telomerase is on record as “no inhibition of telomerase activity was observed”. Further, the “>4 TIFs per nucleus background subtracted” value in the series with BJ cells and with BJ-hTERT cells was 0 each time. Besides, in the series on HCT116 cells, the “effect on telomere length (TRF)” value was “did not result in any significant effects on telomere length”. Moreover, in the series on BJ fibroblast cells, the “telomere shortening (TRF)” value is on record as “did not show enhanced telomere shortening”. Also, the mortality result in series [1] (WT mice, 5 mg/kg daily) is on record as “all mice died by the 15th day”. Besides, the weight loss result in [1] (mouse, in vivo, 5 mg/kg) was “around 2 grams”. For the same compound, the “histology of residual tumors” value in series [2] is listed as “mostly “healthy” growing cancerous cells”.
